For one data set, the system named is Colo-357 cells. The data set can be described thus: Apoptotic cell death by DNA fragmentation, Colo-357. The format is cell-based. To be noted: 1 μM ABT-263, 48 h. The method, then:
(§1) Wogonin (BIOTREND Chemicals AG, Wangen, Switzerland), apigenin, chrysin, luteolin and baicalein (Sigma, St. Louis, USA) were solved in dimethyl sulfoxide (DMSO; Roth, Karlsruhe, Germany) at a stock concentration of 50 mM. Cells were treated with different concentrations of different flavones or ABT-263 (Selleck Chemicals, Houston, USA) for 24 to 48 h. Apoptotic cell death was examined by analysis of DNA fragmentation as previously described 23 (Fas et al.,2006, Blood 108: 3700-6). Results are presented as % specific DNA fragmentation using the formula: (percentage of experimental apoptosis-percentage of spontaneous apoptosis)/(100-percentage of spontaneous apoptosis)×100.

The test system of a further data set is Mcl-1. The data set can be described thus: Western blot analysis of Mcl-1 expression. The format is cell-based, human. To be noted: Jurkat and CEM with acquired ABT-263 resistance. The source says:
(§2) For each sample, 1×10^7 cells were lysed as previously described. 23 Equal amounts of protein were separated on 5-13% SDS-PAGE depending on the molecular sizes of the proteins and blotted onto a nitrocellulose membrane (Amersham Biosciences, Little Chalfon, UK) as previously described. 23 The following antibodies were used: Bad, Bax, Bcl-xL, Bcl-w, XIAP from Cell Signaling Technology, Danvers, USA; Bcl-2 (sc-509) and Mcl-1 (sc-819) from Santa Cruz Biotechnology, Heidelberg, Germany; Tubulin and actin from Sigma, Saint Louis, USA.
A general note: In western blotting, separated proteins are transferred to a membrane and probed.

Data set [1] deals with ABT-263-resistant Jurkat (Jurkat-R). As to the kind of experiment: Apoptotic cell death by DNA fragmentation, ABT-263-resistant Jurkat. The note with it: Jurkat treated with increasing ABT-263 up to 10 μM, 3 months. The format is cell-based, human. The method, then: as §1
The subject of data set [2] is pancreatic carcinoma cell line MiaPaca. As to the kind of experiment: Apoptotic cell death by DNA fragmentation, MiaPaca. The format is cell-based, human. To be noted: 1 μM ABT-263, 48 h. The protocol: (§3) The human malignant cell lines used in this study are the T cell leukemic cell lines CEM, Molt-4 and Jurkat (J16), the HL cell line KM-H2, the cervix adenocarcinoma cell line HeLa, the melanoma cell line A375, the hepatocellular carcinoma cell line HepG2, the pancreatic carcinoma cell line MiaPaca, the breast cancer cell line MCF-7, the prostatic cancer cell line PC3 and the colon carcinoma cell line HCT116. All cells were cultured in RPMI 1640 or DMEM medium (GIBCO laboratories, Grand Island, USA), supplemented with 10% FCS, 100 Units/ml penicillin (GIBCO), 100 μg/m1 streptomycin (GIBCO) and 2 mM L-glutamine (GIBCO) at 37° C. and 5%. Wogonin (BIOTREND Chemicals AG, Wangen, Switzerland), apigenin, chrysin, luteolin and baicalein (Sigma, St. Louis, USA) were solved in dimethyl sulfoxide (DMSO; Roth, Karlsruhe, Germany) at a stock concentration of 50 mM. Cells were treated with different concentrations of different flavones or ABT-263 (Selleck Chemicals, Houston, USA) for 24 to 48 h. Apoptotic cell death was examined by analysis of DNA fragmentation as previously described 23 (Fas et al.,2006, Blood 108: 3700-6). Results are presented as % specific DNA fragmentation using the formula: (percentage of experimental apoptosis-percentage of spontaneous apoptosis)/(100-percentage of spontaneous apoptosis)×100.

Data set [3] has as its system ABT-263-resistant CEM (CEM-R). The data set can be described thus: Apoptotic cell death by DNA fragmentation, ABT-263-resistant CEM. The format is cell-based, human. The note with it: CEM treated with increasing ABT-263 up to 1 μM, 2 months. The method, then:
as §1

Data set [4] relates to hepatocellular carcinoma cell line HepG2. As to the kind of experiment: Apoptotic cell death by DNA fragmentation, HepG2. The format is cell-based, human. The note with it: HepG3 (so in the source); 1 μM ABT-263, 48 h. The protocol: as §3
The test system of the next data set is CEM tumors. The data set can be described thus: CEM xenograft in immunodeficient mice. To be noted: Rag2-/-/Il2rg-/- mice, s.c. CEM; ABT-263 50 mg/kg p.o. and/or wogonin 50 mg/kg i.p. The format is in vivo. The method, then: Immunodeficient mice (Rag2−/−/II2rg−/−) were implanted subcutaneously in the dorsal flank region with CEM (5×10^7 cells). After the tumors reached to approximate 35 mm3, tumor size matched mice were treated with ABT-263 (50 mg/kg, once in each third or fourth day) in the presence or absence of 50 mg/kg wogonin. ABT-263 was formulated according to the protocol previously described 9 and administered p.o. Wogonin dissolved in DMSO was diluted in sunflower oil and administered i.p. For combination studies, ABT-263 was given 2 h before wogonin. The control group was treated in an analogous manner with the vehicle. The tumor size was measured with a micrometer caliper two to three times weekly and the tumor volume (V) was calculated by the formula V=(width2×length)/2. All protocols using and maintaining animals were approved by the German Animal Protection Authority (Office Regierungsprasidium Karlsruhe) in Karlsruhe.

For data set [5], the system named is breast cancer cell line MCF-7. As to the kind of experiment: Apoptotic cell death by DNA fragmentation, MCF-7. The format is cell-based, human. The note with it: 1 μM ABT-263, 48 h. The protocol:
as §3

The next data set relates to human ALL RS4;11. The note with it: 100 mg/kg/day; cited from earlier work.
Data set [6] deals with colon carcinoma cell line HCT116. The data set can be described thus: Apoptotic cell death by DNA fragmentation, HCT116. The format is cell-based, human. The note with it: 1 μM ABT-263, 48 h. The method, then: as §3
Data set [7] concerns proliferating normal peripheral blood T cells. As to the kind of experiment: Apoptotic cell death by DNA fragmentation, proliferating normal T cells. The format is cell-based. To be noted: human. The method, then: Normal T cells were isolated from peripheral blood of healthy donors and activated to proliferate as described in the Materials and Methods. The proliferating T cells were treated with different concentrations of ABT-263 in the absence or presence of wogonin as indicated. Apoptotic cell death was determined by DNA fragmentation. Results are presented as pooled data from four independent donors. (B) Proliferating normal T cells express higher levels of Mcl-1 and Bcl-2 than leukemic Jurkat and Molt-4 T cells. Total cell lysates of activated T cells from three healthy donors were compared with leukemic cells for the expression levels of Mcl-1, Bcl-2, Bcl-xL and Bcl-w. CDK6 is known to be over-expressed in many tumor cells and was used as a marker for malignant cells. Representative blots from two independent experiments are shown. […] Human platelets in 10% FCS were treated with different concentrations of ABT-263 in the absence or presence of wogonin as indicated. After 1 h treatment, apoptotic cell death was determine by staining with annexin V/FITC. Results are average of two independent assays.
Human peripheral blood T cells were prepared as described previously 23 and were more than 90% CD3 positive. For generation of proliferating T cells, freshly isolated T cells were cultured at 2×10^6 cells/ml and were activated with […] PHA overnight. Activated T cells were then washed three times and cultured for additional 5 days in the presence of 25 U/ml IL-2. Platelets were prepared as described in Vogler et al., 2011, Blood 117: 7145-54.
Wogonin (BIOTREND Chemicals AG, Wangen, Switzerland), apigenin, chrysin, luteolin and baicalein (Sigma, St. Louis, USA) were solved in dimethyl sulfoxide (DMSO; Roth, Karlsruhe, Germany) at a stock concentration of 50 mM. Cells were treated with different concentrations of different flavones or ABT-263 (Selleck Chemicals, Houston, USA) for 24 to 48 h. Apoptotic cell death was examined by analysis of DNA fragmentation as previously described 23 (Fas et al.,2006, Blood 108: 3700-6). […]

Data set [8] concerns Hodgkin lymphoma (HL) cell line KM-H2. The data set can be described thus: Apoptotic cell death by DNA fragmentation, KM-H2. The format is cell-based, human. The note with it: 1 μM ABT-263, 48 h. The method, then:
as §3

For data set [9], the system named is prostatic cancer cell line PC3. As to the kind of experiment: Apoptotic cell death by DNA fragmentation, PC3. The format is cell-based, human. The note with it: 1 μM ABT-263, 48 h. The method, then:
as §3

In data set [10] the test system is cervix adenocarcinoma cell line HeLa. The data set can be described thus: Apoptotic cell death by DNA fragmentation, HeLa. To be noted: 1 μM ABT-263, 48 h. The format is cell-based, human. The method, then: as §3
The subject of another data set is melanoma cell line A375. As to the kind of experiment: Apoptotic cell death by DNA fragmentation, A375. The format is cell-based, human. The note with it: 1 μM ABT-263, 48 h. The protocol: as §3
For data set [11], the system named is HTLV-1-associated ATL cell line MT-2. As to the kind of experiment: Apoptotic cell death by DNA fragmentation, MT-2. The format is cell-based, human. To be noted: ABT-263 with different concentrations of rocaglamide, 48 h. The method, then: as §1
(§4) To investigate whether rocaglamide could enhance the toxicity of ABT-263 on leukemic cells, leukemic T cell line Jurkat and the HTLV-1-associated ATL cell line MT-2 were treated with indicated amounts of ABT-263 in the absence or presence of different concentration of rocaglamide for 48 h. Apoptotic cell death was determined by DNA fragmentation.

In data set [12] the test system is caspase-8, caspase-3, PARP. As to the kind of experiment: Western blot of caspases and PARP. To be noted: Jurkat (J16); combination with ABT-263, 24 h. The format is cell-based, human.
From the text: as §2, §4

The test system of the next data set is Jurkat (J16) cells. As to the kind of experiment: Apoptotic cell death by DNA fragmentation, Jurkat. The format is cell-based, human. The note with it: Jurkat; ABT-263 with different concentrations of rocaglamide, 48 h. The protocol:
as §3

In the case of `CC1(C)CCC(c2ccc(Cl)cc2)=C(CN2CCN(c3ccc(C(=O)NS(=O)(=O)c4ccc(N[C@H](CCN5CCOCC5)CSc5ccccc5)c(S(=O)(=O)C(F)(F)F)c4)cc3)CC2)C1` [ABT-263, (R)-4-(4-((4′-chloro-4,4-dimethyl-3,4,5,6-tetrahydro-[1,1′-biphenyl]-2-yl)methyl)piperazin-1-yl)--N-((4-((4-morpholino-1-(phenylthio)butan-2-yl)amino)-3-((trifluoromethyl)sulfonyl)phenyl)sulfonyl)benzamide], the cell death entry was “less than 5%” in the data set on Colo-357 cells; “less than 5%” in data set [2]; 10-20% in [4]; “less than 5%” in data set [5]; 10-20% in [6]; “less than 5%” in [8]. Moreover, the cell death entry in [9] is “less than 5%”; in data set [10], “less than 5%”; with melanoma cell line A375, 10-20%. The “Mcl-1 expression after long-term ABT-263 exposure” value with Mcl-1 is “elevated Mcl-1 expression”. The “sensitivity to ABT-263 after long-term exposure” value in data set [1] and in data set [3] was “resistant to ABT-263” each time. In addition, the “tumor growth / tumor response” value with CEM tumors is listed as “no significant inhibition of tumor growth”. The tumor response entry in the data set with human ALL RS4;11 is reported as “complete tumor response rate”. For the same compound, the “sensitivity of proliferating normal T cells to ABT-263” value in data set [7] is “higher resistance to ABT-263 compared to leukemic cells”.

For `COc1ccc([C@@]23Oc4cc(OC)cc(OC)c4[C@]2(O)[C@H](O)[C@H](C(=O)N(C)C)[C@H]3c2ccccc2)cc1` [rocaglamide, (1R,2R,3S,3aR,8bS)-1,8b-dihydroxy-6,8-dimethoxy-3a-(4-methoxyphenyl)—N,N-dimethyl-3-phenyl-2,3-dihydro-1H-cyclopenta[b][1]benzofuran-2-carboxamide], the “sensitization of ABT-263-induced apoptosis” value (in [11]; in the data set with Jurkat (J16) cells) was “sensitized by rocaglamide in both leukemic cell lines in a dose-dependent manner” each time. Also, in data set [12], the “activities of caspase-8, caspase-3 and PARP cleavage” value is “Significant enhancement of activities of caspase-8, caspase-3 and increase in PARP cleavage”.

The values above are taken from US20160158189A1, “SENSITIZATION OF CANCER CELLS TO APOPTOSIS INDUCTION BY FLAVAGLINES AND 5-HYDROXY-FLAVONES” (DEUTSCHES KREBSFORSCHUNGSZENTRUM, priority 2013, published 2016).
